For assay [1], the system named is carrageenan-induced edema. Nature of the assay: carrageenan edema test in rats. The conditions noted are these: dose within the range 10-160 mg/kg p.o. It is filed as in vivo, rat (female Sprague-Dawley). The text has this:
Another test, in which the effect of a drug corresponds to the effects obtained in the tests mentioned above, and which can therefore also be used, is the well-established carrageenan edema test in rats (5). Comparative evaluation of compounds of the present invention in the three tests mentioned has shown that compounds which increase the extent of the delayed hypersensitivity reaction in the pertussis vaccine pleurisy test and in the adjuvant arthritis test also increase the extent of carrageenan-induced edema in the carrageenan edema test, thus providing a further tool for the determination of enhancement of cell-mediated immunity.
This example illustrates the effect of the compounds of the general formula I in the carrageenan edema test in rats.
A modification of a method described in (5) was used. Female Sprague-Dawleyrats weighing 110-120 g was used. At least 10 animals were used in each experimental group. Foot edema was induced by injecting carrageenan in 0.9% NaCl into the plantar surface of the right hind paw of the rats.
The substances suspended in aqueous methocel solution 10 ml/kg were administered intragastrically 30 minutes before the injection of carrageenan. The control groups were given methocel solution 10 ml/kg.
Three hours after carrageenan injection the animals were killed. The hind feet were cut off and weighed. The difference in weight of the injected right paw and the uninjected left paw was called edema weight.
The effect of the substances was assessed by the edema weight expressed in percent after comparison with the control groups.
A general note: Carrageenan injected into the paw causes an acute inflammation.

Assay [2] relates to delayed hypersensitivity reaction (pertussis vaccine pleurisy). Nature of the assay: pertussis vaccine pleurisy test in rats. It is filed as in vivo, rat (male Sprague-Dawley). The conditions noted are these: 10 mg/kg p.o. An excerpt:
A useful test for the evaluation of the effect of chemical compounds on the immune system is the pertussis vaccine pleurisy test in rats. Compounds which enhance the response in this delayed hypersensitivity reaction are considered to stimulate cell-mediated immunity (4).
This example illustrates the effect of the compounds of the general formula I in the pertussis vaccine pleurisy test.
Pertussis vaccine pleurisy is a useful test for the evaluation of the effect of chemical compounds on the immune system. Compounds which enhance the response in this delayed hypersensitivity reaction are considered to stimulate cell-mediated immunity.
A modification of a method described in (4) was used. Male Sprague-Dawley rats weighing 250-275 g were used. At least ten animals were used in each group.
Equal volumes of Freund's incomplete adjuvant and a suspension of heat killed Bordetella pertussis organisms were mixed. To sensitize animals, day 0, 0.2 ml of a mixture containing 0.036×10^10 organisms/ml was injected into the dorsal surface of one hind paw and one forepaw.
The animals were challenged on day 12 with 0.1 ml of a mixture containing 0.25×10^10 organisms/ml that was injected intrapleurally. 48 hours after challenge, day 14, the volume of the exudate in the pleural cavity was measured.
The substances suspended in aqueous methocel solution 10 ml/kg were given intragastrically once daily from day 10 to day 13. The control groups were given methocel solution 10 ml/kg.
The effect of the substances was assessed by the exudate volume expressed in percent after comparison with the control groups.

The subject of assay [3] is delayed hypersensitivity reaction (adjuvant arthritis, Mycobacterium butyricum). Nature of the assay: adjuvant arthritis test in rats. The note with it: 40 mg/kg p.o. It is filed as in vivo, rat (male Lister hooded). The text has this: The adjuvant arthritis test in rats produces a measureable extent of a delayed hypersensitivity reaction and can be used for a determination of variations in the extent of the delayed hypersensitivity reaction upon drug administration to the host. An increase in the extent of the delayed hypersensitivity reaction upon drug administration consequently indicates enhanced cell-mediated immunity in the host.
This example illustrates the effect of the compounds of the general formula I in the adjuvant arthritis test in rats.
The adjuvant arthritis test in rats produces a delayed hypersensitivity reaction and can be used for a determination of variations of the delayed hypersensitivity reaction upon drug administration to the host. An increase in the extent of the delayed hypersensitivity reaction upon drug administration consequently indicates enhanced cell-mediated immunity in the host.
A modification of a method described in (12) was used. Male Lister hooded rats weighing 250-275 g were used. At least 9 animals were used in each experimental group.
A single intradermal injection of 0.5 mg/0.1 ml heat killed Mycobacterium butyricum suspended in sterile liquid paraffinum was given into the right hind foot of all rats. After this injection, day 0, the volume of the left hind paw, measured by water displacement, was followed to the end of the experiment.
The substances suspended in aqueous methocel solution 10 ml/kg were given intragastrically. The control group was given methocel solution 10 ml/kg. The different groups of animals were thus treated once daily from day -4 to day 14. The effect of the substances was assessed by the left foot volume expressed in percent after comparison with the control groups.

`COc1ccc(-n2c(=O)c(C(=O)N(C)c3ccccc3)c(O)c3ccccc32)cc1` [20:34, N-methyl-N-phenyl-1-(4-methoxyphenyl)-1,2-dihydro-4-hydroxy-2-oxo-quinoline-3-carboxamide]: in assay [1], the “significant potentiation of the carrageenan edema” value (shortened to “significant potentiation”) is reported as “potentiate significantly”. Besides, the “significant enhancing effect in the pertussis vaccine pleurisy test” value in assay [2] was “significant enhancing effect”.

For the compound `CC(=O)Nc1ccc(N(C)C(=O)c2c(O)c3ccccc3n(C)c2=O)cc1` [20:35, N-(4-acetylaminophenyl)-N-methyl-1,2-dihydro-4-hydroxy-1-methyl-2-oxo-quinoline-3-carboxamide], in assay [1], the “significant potentiation” value is “potentiate significantly”. In addition, the “significant enhancing effect in the pertussis vaccine pleurisy test” value in assay [2] is recorded as “significant enhancing effect”.

Turning to `C=CCn1c(=O)c(C(=O)N(C)c2ccc(N(C)C)cc2)c(O)c2ccccc21` [20:39, N-(4-dimethylaminophenyl)-N-methyl-1-allyl-1,2-dihydro-4-hydroxy-2-oxo-quinoline-3-carboxamide], the “significant potentiation” value in assay [1] was “potentiate significantly”. In assay [2], the “significant enhancing effect in the pertussis vaccine pleurisy test” value is given as “significant enhancing effect”.

Regarding `CN(C(=O)c1c(O)c2cccc3c2n(c1=O)CC3)c1ccccc1` [21:3, N-methyl-N-phenyl-1,2-dihydro-1,8-ethylene-4-hydroxy-2-oxo-quinoline-3-carboxamide], the “significant potentiation” value in assay [1] is listed as “potentiate significantly”. Also, in assay [2], the “significant enhancing effect in the pertussis vaccine pleurisy test” value was “significant enhancing effect”.

With `CCCCN(C(=O)c1c(O)c2ccccc2n(C)c1=O)c1ccccc1` [21:8, N-(n-butyl)-N-phenyl-1,2-dihydro-4-hydroxy-1-methyl-2-oxo-quinoline-3-carboxamide], the “significant potentiation” value in assay [1] is recorded as “potentiate significantly”. In addition, the “significant enhancing effect in the pertussis vaccine pleurisy test” value in assay [2] is recorded as “significant enhancing effect”.

`CN(C)c1ccc(N(C)C(=O)c2c(O)c3ccccc3n(C)c2=O)cc1` [21:10, N-(4-dimethylaminophenyl)-N-methyl-1,2-dihydro-4-hydroxy-1-methyl-2-oxo-quinoline-3-carboxamide]: the “significant potentiation” value in assay [1] was “potentiate significantly”. In assay [2], the “significant enhancing effect in the pertussis vaccine pleurisy test” value was “significant enhancing effect”.

As for `CN(C(=O)c1c(O)c2ccccc2n(C)c1=O)c1ccc(O)cc1` [21:11, N-(4-hydroxyphenyl)-N-methyl-1,2-dihydro-4-hydroxy-1-methyl-2-oxo-quinoline-3-carboxamide], in assay [2] (Rattus norvegicus, po, 48 h, once daily day 10 to day 13, vs control, preliminary, read-out: Enhancement of the delayed hypersensitivity reaction assessed by the exudate vol.), the change in vivo at 10 mg/kg amounted to 34%. Also, in assay [3], the “significant potentiating effect in the adjuvant arthritis test” value was “significant potentiating effect”.

As to `C=CCN(C(=O)c1c(O)c2ccccc2n(C)c1=O)c1ccccc1` [21:12, N-allyl-N-phenyl-1,2-dihydro-4-hydroxy-1-methyl-2-oxo-quinoline-3-carboxamide], in assay [1], the “significant potentiation” value is reported as “potentiate significantly”. Moreover, the “significant enhancing effect in the pertussis vaccine pleurisy test” value in assay [2] is recorded as “significant enhancing effect”.

With `CCN(C(=O)c1c(OC)c2c(F)cccc2n(C)c1=O)c1ccc(OC)c(OC)c1` [21:16, N-(3,4-dimethoxyphenyl)-N-ethyl-1,2-dihydro-5-fluoro-4-methoxy-1-methyl-2-oxo-quinoline-3-carboxamide], the “significant potentiation” value in assay [1] is listed as “potentiate significantly”. The “significant enhancing effect in the pertussis vaccine pleurisy test” value in assay [2] was “significant enhancing effect”.

Consider `COc1cccc(N(C)C(=O)c2c(O)c3cc(C)ccc3n(C(C)C)c2=O)c1` [21:17, N-(3-methoxyphenyl)-N-methyl-1,2-dihydro-4-hydroxy-1-isopropyl-6-methyl-2-oxo-quinoline-3-carboxamide], for which the “significant enhancing effect in the pertussis vaccine pleurisy test” value in assay [2] is “significant enhancing effect”. Moreover, the “significant potentiating effect in the adjuvant arthritis test” value in assay [3] is “significant potentiating effect”.

On to `CN(C(=O)c1c(O)c2ccccc2n(-c2ccc(F)cc2)c1=O)c1ccc(N2CCCC2)cc1` [21:19, N-methyl-N-(4-pyrrolidinophenyl)-1-(4-fluorophenyl)-1,2-dihydro-4-hydroxy-2-oxo-quinoline-3-carboxamide], for which, in assay [3], the “significant potentiating effect in the adjuvant arthritis test” value is recorded as “significant potentiating effect”.

For the compound `CN(C(=O)c1c(O)c2cccc3c2n(c1=O)CC3)c1cnccn1` [21:20, N-methyl-N-pyrazinyl-1,2-dihydro-1,8-ethylene-4-hydroxy-2-oxo-quinoline-3-carboxamide], the “significant potentiation” value in assay [1] is “potentiate significantly”. Besides, the “significant enhancing effect in the pertussis vaccine pleurisy test” value in assay [2] is given as “significant enhancing effect”.

As to `CN(C(=O)c1c(O)c2ccccc2n(C)c1=O)c1nccs1` [21:21, N-methyl-N-2-thiazolyl-1,2-dihydro-4-hydroxy-1-methyl-2-oxo-quinoline-3-carboxamide], the “significant potentiation” value in assay [1] is on record as “potentiate significantly”. Moreover, in assay [2], the “significant enhancing effect in the pertussis vaccine pleurisy test” value is recorded as “significant enhancing effect”.

Take `CN(C(=O)c1c(O)c2ccccc2n(C)c1=O)c1cnccn1` [21:23, N-methyl-N-pyrazinyl-1,2-dihydro-4-hydroxy-1-methyl-2-oxo-quinoline-3-carboxamide]: the “significant enhancing effect in the pertussis vaccine pleurisy test” value in assay [2] is “significant enhancing effect”. Further, the “significant potentiating effect in the adjuvant arthritis test” value in assay [3] is recorded as “significant potentiating effect”.

`Cc1cc(N(C)C(=O)c2c(O)c3cc(Cl)ccc3n(C)c2=O)sn1` [21:24, N-methyl-N-(3-methyl-5-isothiazolyl)-6-chloro-1,2-dihydro-4-hydroxy-1-methyl-2-oxo-quinoline-3-carboxamide]: in assay [2], the “significant enhancing effect in the pertussis vaccine pleurisy test” value was “significant enhancing effect”. For the same compound, the “significant potentiating effect in the adjuvant arthritis test” value in assay [3] is on record as “significant potentiating effect”.

As to `CCN(C(=O)c1c(O)c2cc(N(C)C)ccc2n(C)c1=O)c1ccccn1` [21:26, N-ethyl-N-2-pyridyl-1,2-dihydro-6-dimethylamino-4-hydroxy-1-methyl-2-oxo-quinoline-3-carboxamide], in assay [2], the “significant enhancing effect in the pertussis vaccine pleurisy test” value was “significant enhancing effect”. Moreover, the “significant potentiating effect in the adjuvant arthritis test” value in assay [3] was “significant potentiating effect”.

Regarding `COc1ccc(N(C)C(=O)c2c(O)c3cccc4c3n(c2=O)CC4)cc1` [21:28, N-(4-methoxyphenyl)-N-methyl-1,2-dihydro-1,8-ethylene-4-hydroxy-2-oxo-quinoline-3-carboxamide], the “significant enhancing effect in the pertussis vaccine pleurisy test” value in assay [2] is given as “significant enhancing effect”. In assay [3], the “significant potentiating effect in the adjuvant arthritis test” value is “significant potentiating effect”.

Take `CN(C)c1ccc(N(C)C(=O)c2c(O)c3cccc4c3n(c2=O)CC4)cc1` [21:30, N-(4-dimethylaminophenyl)-N-methyl-1,2-dihydro-1,8-ethylene-4-hydroxy-2-oxo-quinoline-3-carboxamide]: in assay [2], the “significant enhancing effect in the pertussis vaccine pleurisy test” value is given as “significant enhancing effect”. Moreover, the “significant potentiating effect in the adjuvant arthritis test” value in assay [3] was “significant potentiating effect”.

Consider `CN(C(=O)c1c(O)c2cccc3c2n(c1=O)CC3)c1nccs1` [21:31, N-methyl-N-2-thiazolyl-1,2-dihydro-1,8-ethylene-4-hydroxy-2-oxo-quinoline-3-carboxamide], for which the “significant enhancing effect in the pertussis vaccine pleurisy test” value in assay [2] is recorded as “significant enhancing effect”. Moreover, the “significant potentiating effect in the adjuvant arthritis test” value in assay [3] was “significant potentiating effect”.

These data come from patent US4738971A, “N-aryl-1,2-dihydro-4-substituted-1-alkyl-2-oxo-quinoline-3-carboxamides” (priority 1981, dated 1988).
